Results published in patent publication US4650855A, “Glycopeptide antibiotic L 17046” (Gruppo Lepetit S.p.A., priority 1983, dated 1987).
In brackets after ≈: the same amount, converted by molar mass.

Legend:
[1] = system: Staplylococcus aureus Tour; test: In vitro antibacterial activity, two-fold dilution method in microtiter system (MIC); type: cell-based, Staphylococcus aureus
Procedure: (§1) Isosensitest broth (Oxoid) and Todd-Hewitt broth (Difco) were used for Staphylococci and Streptococci, respectively. Broth cultures were diluted so that the final inoculum was about 10^4 colony forming units/ml (CFU/ml).

[2] = system: Staphylococcus aureus ATCC 6538; test: as above; type: cell-based; conditions: Isosensitest broth, inoculum about 10^4 CFU/ml, 18-24 h at 37° C.
Procedure: as §1

[3] = system: Staphylococcus epidermidis ATCC 12228; test: as above; type: cell-based; conditions: Isosensitest broth, inoculum about 10^4 CFU/ml, 18-24 h at 37° C.
Procedure: as §1

[4] = system: Streptococcus dysgalactiae ATCC 9926; test: as above; type: cell-based; conditions: Todd-Hewitt broth, inoculum about 10^4 CFU/ml, 18-24 h at 37° C.
Procedure: as §1

[5] = system: Streptococcus faecalis ATCC 7080; test: as above; type: cell-based; conditions: Todd-Hewitt broth, inoculum about 10^4 CFU/ml, 18-24 h at 37° C.
Procedure: as §1

[6] = system: Streptococcus pneumoniae UC 41; test: as above; type: cell-based; conditions: Todd-Hewitt broth, inoculum about 10^4 CFU/ml, 18-24 h at 37° C.
Procedure: as §1

[7] = system: Streptococcus pyogenes C 203; test: as above; type: cell-based; conditions: Todd-Hewitt broth, inoculum about 10^4 CFU/ml, 18-24 h at 37° C.
Procedure: as §1

S. epidermidis L 1142 = test: MIC against clinical isolates of coagulase-negative staphylococci; type: cell-based; conditions: clinical isolate, methicillin-resistant strain
Procedure: as §1
(§2) Its MICs […] against some clinical isolates of the above microbial strains are listed below in Table II: […]

S. epidermidis L 1378 = test: as above; type: cell-based; conditions: clinical isolate
Procedure: as §1, §2

S. epidermidis L 785 = test: as above; type: cell-based; conditions: clinical isolate, methicillin-resistant strain
Procedure: as §1, §2

S. epidermidis L 835 = test: as above; type: cell-based; conditions: clinical isolate, methicillin-resistant strain
Procedure: as §1, §2

S. saprophyticus L 1141 = test: as above; type: cell-based; conditions: clinical isolate
Procedure: as §1, §2

gram-positive bacteria = test: In vitro antibacterial activity, spectrum; type: cell-based
Procedure: as §1

[8] = system: coagulase-negative staphylocci (S. epidermidis, S. saprophyticus); test: Effectiveness against coagulase-negative staphylococci; type: cell-based
Description: as §2

mice = test: Approximate acute toxicity in mice; type: in vivo; conditions: acute toxicity (i.p.), administered by i.m. route as printed
Solubility = type: physicochemical
[9] = Potentiometric titration profile; type: physicochemical; conditions: methylcellosolve:water 4:1, titration with 0.01 N NaOH after excess 0.01 N HCl

CC(=O)N[C@@H]1[C@@H](O[C@H]2c3ccc(c(Cl)c3)Oc3cc4cc(c3O)Oc3ccc(cc3Cl)C[C@@H]3NC(=O)[C@@H](N)c5ccc(O)c(c5)Oc5cc(O)cc(c5)[C@@H](NC3=O)C(=O)N[C@@H]4C(=O)N[C@@H]3C(=O)N[C@H]2C(=O)N[C@@H](C(=O)O)c2cc(O)cc(O)c2-c2cc3ccc2O)O[C@@H](CO)[C@H](O)[C@H]1O (stereo in doubt) [antibiotic L 17046]
MIC ([1]; Isosensitest broth + 30% bovine serum): 0.4 µg/mL
MIC ([1]; Isosensitest broth, inoculum about 10^4 CFU/ml, 18-24 h at 37° C.): 0.2 µg/mL (≈ 0.143 µM)
MIC [2]: 0.2 µg/mL (≈ 0.143 µM)
MIC [3]: 0.05 µg/mL (≈ 0.0357 µM)
MIC [4]: 0.8 µg/mL (≈ 0.571 µM)
MIC [5]: 1.6 µg/mL (≈ 1.14 µM)
MIC [6]: 1.6 µg/mL (≈ 1.14 µM)
MIC [7]: 1.6 µg/mL (≈ 1.14 µM)
MIC (S. epidermidis L 1142): 0.1 µg/mL (≈ 0.0713 µM)
MIC (S. epidermidis L 1378): 0.05 µg/mL (≈ 0.0357 µM)
MIC (S. epidermidis L 785): 0.05 µg/mL (≈ 0.0357 µM)
MIC (S. epidermidis L 835): 0.1 µg/mL (≈ 0.0713 µM)
MIC (S. saprophyticus L 1141): 0.1 µg/mL (≈ 0.0713 µM)
in vitro antibacterial activity (spectrum) (gram-positive bacteria): mainly active against gram-positive bacteria
effectiveness against coagulase-negative staphylococci [8]: particularly effective
approximate LD50 (mice): about 850 mg/kg
solubility (Solubility; in highly concentrated mineral acids): insoluble
solubility (Solubility; in methanol): sligltly soluble
solubility (Solubility; in water at pH>8.0, dimethylformamide, dimethylsulfoxide, propyleneglycol and methylcellosolve): freely soluble
pH1/2 value, third titration slope ([9]; five equivalents): 11
pH1/2 value, first titration slope ([9]; one equivalent): 5.0
pH1/2 value, second titration slope ([9]; one equivalent): 7.0
